Assay results: patent US12350269B2 (Alexion Pharmaceuticals, Inc., priority 2015, dated 2025)

What was measured:
[1] = test system: anti-IgM induced signalling pathways; experiment: Primary CLL cells: B cell receptor induced signalling (immunoblotting, flow cytometry); format: cell-based; settings: primary human CLL cells
Method: (§1) Isolated CLL cells were cultured in RPMI-1640 with 15% fetal bovine serum (Gibco, Grand Island, NY, USA), penicillin (100 IU), and streptomycin (100 μg/mL), at a density of 1×10^7 cells/mL in the presence or absence of […] CpG, 100 ng/mL CD40L, 10 ng/mL IL-4. Anti-IgM stimulation was conducted with plate-bound anti-IgM (10 μg/mL). CLL cells were stimulated with 10 ng/mL IL-6 (R&D Systems, Minneapolis, MN), to detect the phosphorylation of JAK1/JAK2 (Cell Signaling Technology, Danvers, MA) and STAT3 (Cell Signaling Technology, Danvers, MA, USA).

TYK2 = biological target: T1, TYK2 (Homo sapiens, UniProt P29597); experiment: Purified kinase assay (Millipore); format: biochemical; settings: 300 nM ATP
T1 construct: purchased Millipore
T1 sequence (P29597 whole entry): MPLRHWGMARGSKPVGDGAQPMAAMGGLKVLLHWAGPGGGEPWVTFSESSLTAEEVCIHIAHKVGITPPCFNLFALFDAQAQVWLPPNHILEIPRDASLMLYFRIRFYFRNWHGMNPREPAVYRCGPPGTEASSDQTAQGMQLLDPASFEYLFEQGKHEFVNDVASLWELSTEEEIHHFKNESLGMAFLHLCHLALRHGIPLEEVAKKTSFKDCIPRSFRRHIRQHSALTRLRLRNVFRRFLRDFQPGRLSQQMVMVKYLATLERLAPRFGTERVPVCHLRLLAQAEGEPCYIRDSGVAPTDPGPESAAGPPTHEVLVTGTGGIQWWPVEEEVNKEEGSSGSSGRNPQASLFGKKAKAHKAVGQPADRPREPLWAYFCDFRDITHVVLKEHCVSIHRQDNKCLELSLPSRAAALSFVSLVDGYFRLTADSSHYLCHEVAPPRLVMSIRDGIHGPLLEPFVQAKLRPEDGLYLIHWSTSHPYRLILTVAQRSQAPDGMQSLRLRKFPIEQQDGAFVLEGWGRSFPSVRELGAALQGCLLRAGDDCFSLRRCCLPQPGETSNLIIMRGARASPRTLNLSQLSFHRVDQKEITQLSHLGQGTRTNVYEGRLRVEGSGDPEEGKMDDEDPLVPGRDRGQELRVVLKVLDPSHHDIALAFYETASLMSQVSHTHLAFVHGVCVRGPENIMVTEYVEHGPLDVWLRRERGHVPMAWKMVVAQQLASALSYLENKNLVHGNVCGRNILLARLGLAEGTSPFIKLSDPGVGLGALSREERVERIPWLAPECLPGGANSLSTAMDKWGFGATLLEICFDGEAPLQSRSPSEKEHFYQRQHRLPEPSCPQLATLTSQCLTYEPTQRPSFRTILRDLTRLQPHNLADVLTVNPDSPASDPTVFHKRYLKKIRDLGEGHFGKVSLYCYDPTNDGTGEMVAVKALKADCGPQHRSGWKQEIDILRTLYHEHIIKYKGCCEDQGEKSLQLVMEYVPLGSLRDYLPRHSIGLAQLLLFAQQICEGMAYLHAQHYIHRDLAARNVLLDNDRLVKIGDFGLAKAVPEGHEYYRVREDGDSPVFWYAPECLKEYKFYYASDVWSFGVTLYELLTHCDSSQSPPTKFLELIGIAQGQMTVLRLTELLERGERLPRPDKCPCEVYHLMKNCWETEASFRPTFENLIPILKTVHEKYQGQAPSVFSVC
Method: (§2) Purified Kinase Assays: Performed at Millipore at a fixed concentration of 300 nM ATP. A 10-point concentration curve was used to determine IC (Inhibitory Concentration).

FLT3 = biological target: T2, FLT3 (Homo sapiens, UniProt P36888); experiment: Purified kinase assay (Millipore); format: biochemical; settings: 300 nM ATP
T2 construct: purchased Millipore
T2 sequence (P36888 27-993): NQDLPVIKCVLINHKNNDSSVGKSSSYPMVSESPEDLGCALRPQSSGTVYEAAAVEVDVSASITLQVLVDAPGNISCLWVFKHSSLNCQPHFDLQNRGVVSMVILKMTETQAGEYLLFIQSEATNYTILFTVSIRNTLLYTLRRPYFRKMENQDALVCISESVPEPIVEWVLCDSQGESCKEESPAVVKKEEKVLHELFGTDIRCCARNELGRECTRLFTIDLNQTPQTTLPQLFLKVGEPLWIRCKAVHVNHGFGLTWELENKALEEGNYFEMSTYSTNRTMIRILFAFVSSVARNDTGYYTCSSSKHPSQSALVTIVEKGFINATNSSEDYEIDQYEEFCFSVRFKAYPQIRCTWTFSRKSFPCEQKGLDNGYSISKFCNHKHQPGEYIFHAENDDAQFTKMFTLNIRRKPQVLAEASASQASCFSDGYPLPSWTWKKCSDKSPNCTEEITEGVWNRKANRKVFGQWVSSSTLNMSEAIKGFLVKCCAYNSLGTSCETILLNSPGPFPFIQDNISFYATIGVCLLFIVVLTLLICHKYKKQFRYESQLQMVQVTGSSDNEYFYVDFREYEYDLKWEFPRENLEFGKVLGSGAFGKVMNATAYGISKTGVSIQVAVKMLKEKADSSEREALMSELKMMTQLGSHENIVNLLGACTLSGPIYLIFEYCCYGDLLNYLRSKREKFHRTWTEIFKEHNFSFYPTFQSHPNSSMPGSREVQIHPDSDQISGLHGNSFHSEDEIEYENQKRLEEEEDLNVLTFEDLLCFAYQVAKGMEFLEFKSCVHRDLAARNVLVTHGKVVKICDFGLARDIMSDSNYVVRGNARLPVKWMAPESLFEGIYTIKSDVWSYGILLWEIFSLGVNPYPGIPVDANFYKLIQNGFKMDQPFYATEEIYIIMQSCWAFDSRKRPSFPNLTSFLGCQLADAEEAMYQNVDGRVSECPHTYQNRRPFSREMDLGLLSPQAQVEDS
Method: as §2

RSK4 = biological target: T3, RSK4 (Homo sapiens, UniProt Q9UK32); experiment: Purified kinase assay (Millipore); format: biochemical; settings: 300 nM ATP
T3 construct: purchased Millipore
T3 sequence (Q9UK32 whole entry): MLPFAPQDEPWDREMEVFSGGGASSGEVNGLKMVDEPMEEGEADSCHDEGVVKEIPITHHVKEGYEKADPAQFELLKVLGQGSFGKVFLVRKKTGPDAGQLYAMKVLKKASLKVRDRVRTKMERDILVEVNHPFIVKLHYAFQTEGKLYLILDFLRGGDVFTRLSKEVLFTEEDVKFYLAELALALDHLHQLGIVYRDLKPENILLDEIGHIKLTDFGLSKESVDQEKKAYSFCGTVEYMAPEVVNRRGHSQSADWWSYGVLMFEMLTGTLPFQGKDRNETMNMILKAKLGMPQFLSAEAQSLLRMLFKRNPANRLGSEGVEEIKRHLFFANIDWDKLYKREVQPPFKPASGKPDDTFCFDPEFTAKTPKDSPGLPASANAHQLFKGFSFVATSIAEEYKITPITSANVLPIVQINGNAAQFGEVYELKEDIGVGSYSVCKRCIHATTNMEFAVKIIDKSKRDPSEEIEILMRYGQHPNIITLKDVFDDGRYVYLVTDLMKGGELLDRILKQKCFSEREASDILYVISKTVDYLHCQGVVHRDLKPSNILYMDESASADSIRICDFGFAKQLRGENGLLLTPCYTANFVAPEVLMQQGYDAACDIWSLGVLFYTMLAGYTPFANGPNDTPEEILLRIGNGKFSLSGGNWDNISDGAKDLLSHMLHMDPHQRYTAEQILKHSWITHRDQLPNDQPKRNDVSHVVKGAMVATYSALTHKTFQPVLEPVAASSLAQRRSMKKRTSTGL
Method: as §2

MARK1 = biological target: T4, MARK1 (Homo sapiens, UniProt Q9P0L2); experiment: Purified kinase assay (Millipore); format: biochemical; settings: 300 nM ATP
T4 construct: purchased Millipore
T4 sequence (Q9P0L2 whole entry): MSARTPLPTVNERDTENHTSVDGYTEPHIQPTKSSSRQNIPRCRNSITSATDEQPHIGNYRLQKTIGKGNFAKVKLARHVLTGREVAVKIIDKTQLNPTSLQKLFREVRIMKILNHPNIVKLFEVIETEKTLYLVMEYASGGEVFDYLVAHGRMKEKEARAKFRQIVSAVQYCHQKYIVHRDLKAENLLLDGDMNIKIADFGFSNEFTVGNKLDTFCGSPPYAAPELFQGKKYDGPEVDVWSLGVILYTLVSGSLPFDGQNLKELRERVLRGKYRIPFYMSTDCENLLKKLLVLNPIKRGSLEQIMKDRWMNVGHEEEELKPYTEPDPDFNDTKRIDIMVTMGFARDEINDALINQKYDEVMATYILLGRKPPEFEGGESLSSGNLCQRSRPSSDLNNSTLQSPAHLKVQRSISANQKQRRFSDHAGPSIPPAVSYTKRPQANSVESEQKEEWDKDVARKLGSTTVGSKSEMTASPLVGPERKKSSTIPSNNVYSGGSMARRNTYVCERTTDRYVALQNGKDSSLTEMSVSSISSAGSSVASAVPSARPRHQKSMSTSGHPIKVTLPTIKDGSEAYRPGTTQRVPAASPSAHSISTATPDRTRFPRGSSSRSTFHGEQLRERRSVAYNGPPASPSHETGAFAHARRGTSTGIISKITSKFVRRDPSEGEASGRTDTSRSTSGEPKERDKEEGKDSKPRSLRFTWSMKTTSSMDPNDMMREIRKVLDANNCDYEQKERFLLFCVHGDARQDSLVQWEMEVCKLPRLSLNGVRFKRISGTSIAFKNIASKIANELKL
Method: as §2

[2] = test system: serum inflammation markers (β2M, CRP, CCL4); experiment: Phase 1 study: serum markers of inflammation; format: in vivo, human
Method: Cytokine Analysis: Serum protein was analyzed by Myriad RBM (Austin, TX) using the Human Inflammation Map.
(§3) Pharmacokinetics (“PK”), pharmacodynamics (“PD”), and safety were monitored. Response was assessed by standard criteria. The level of inhibition of SYK and JAK was determined using a variety of whole blood assays measuring signaling via receptors for the B-cell antigen, IL2, IL4, IL6, and GM-CSF. Serum markers of tumor burden, including CCL3, CCL4, and other markers of inflammation (β2M and CRP), were also being measured.

[3] = test system: BTK^C481S-transfected TMD8 cells; experiment: Cell growth of transfected TMD8 cells (Muse Count & Viability); format: cell-based; settings: 250 nM, 7 days
Source text: (§5) Cell transfection, cell count and viability assay: TMD8 cells were transfected with constructs of WT BTK or BTK^C481S mutants using kit V, Program U-13 on Amaxa Nucleofector, according to the manufacturer's protocols (Amaxa, Cologne, Germany). After transfection, the cells were co-cultured with NKTert cells in a 24-well plate for 24 hrs for recovery.

IL2, IL4, IL6 signaling = experiment: Phase 1 study: whole blood PD, IL2, IL4, IL6 (JAK/STAT) signaling; format: in vivo, human
Method: (§4) Human Whole Blood Assays: Inhibition of SYK- and JAK-dependent and independent signaling was determined by stimulating human whole blood with various agonists against BCR and cytokine receptors. 100 μL aliquots of heparinized healthy human whole blood was stimulated as previously described (Coffey et al, J. of Pharm. and Experimental Therapeutics, 351:538-548, 2014), using an 8-point concentration curve to determine IC50's. Signaling and activation responses were determined by Fluorescence-activated cell sorting (“FACS”). For the clinical trial, whole blood samples were collected prior to and after dosing. Percent inhibition was calculated by normalizing to the pre-dose stimulation response.
as §3

JAK2 [4] = experiment: Healthy normal human whole blood assay: Monocytes, GMCSF stimulation, pSTAT5 Y694 readout; format: cell-based; settings: Monocyte
JAK1/TYK2 = experiment: Healthy normal human whole blood assay: Monocytes, IL6 stimulation, pSTAT3 Y705 readout; format: cell-based; settings: Monocyte
270 kinase panel = 270 kinase panel screen (Millipore); format: biochemical; settings: the 24 kinases listed in Table 1
JAK1 = biological target: T5, JAK1 (Homo sapiens, UniProt P23458); experiment: Purified kinase assay (Millipore); format: biochemical; settings: 300 nM ATP
T5 construct: purchased Millipore
T5 sequence (P23458 whole entry): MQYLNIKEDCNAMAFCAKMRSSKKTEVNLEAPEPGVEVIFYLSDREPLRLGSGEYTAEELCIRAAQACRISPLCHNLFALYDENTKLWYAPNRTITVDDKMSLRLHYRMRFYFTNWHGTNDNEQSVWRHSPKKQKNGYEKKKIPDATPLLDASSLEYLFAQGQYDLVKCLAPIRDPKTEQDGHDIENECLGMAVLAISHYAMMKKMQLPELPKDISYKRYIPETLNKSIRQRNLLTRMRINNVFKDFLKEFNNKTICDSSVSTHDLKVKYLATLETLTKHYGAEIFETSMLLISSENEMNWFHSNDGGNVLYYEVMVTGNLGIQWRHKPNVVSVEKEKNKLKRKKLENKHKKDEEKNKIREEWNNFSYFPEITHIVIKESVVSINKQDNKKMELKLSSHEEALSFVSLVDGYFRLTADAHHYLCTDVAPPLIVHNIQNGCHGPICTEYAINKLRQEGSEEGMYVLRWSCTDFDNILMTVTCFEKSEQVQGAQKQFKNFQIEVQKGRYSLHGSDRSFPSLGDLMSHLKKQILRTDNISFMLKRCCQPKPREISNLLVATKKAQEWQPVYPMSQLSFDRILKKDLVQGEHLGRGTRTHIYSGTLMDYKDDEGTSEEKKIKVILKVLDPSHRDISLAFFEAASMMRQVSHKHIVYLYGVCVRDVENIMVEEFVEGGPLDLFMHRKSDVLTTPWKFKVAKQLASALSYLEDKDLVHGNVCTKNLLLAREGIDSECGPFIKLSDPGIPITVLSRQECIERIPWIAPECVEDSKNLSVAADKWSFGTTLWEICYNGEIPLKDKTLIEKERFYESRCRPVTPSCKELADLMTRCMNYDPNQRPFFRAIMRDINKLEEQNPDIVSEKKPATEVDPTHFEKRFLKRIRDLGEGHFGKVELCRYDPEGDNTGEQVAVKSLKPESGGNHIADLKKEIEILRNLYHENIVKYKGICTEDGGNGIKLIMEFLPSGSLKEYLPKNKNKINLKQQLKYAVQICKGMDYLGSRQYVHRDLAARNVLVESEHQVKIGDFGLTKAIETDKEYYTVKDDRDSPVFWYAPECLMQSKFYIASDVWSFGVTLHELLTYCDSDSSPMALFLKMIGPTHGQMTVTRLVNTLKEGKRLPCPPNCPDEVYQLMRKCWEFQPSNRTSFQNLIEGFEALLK

[5] = test system: BCR/SYK and cytokine (IL2, IL4, IL6) JAK/STAT signaling; experiment: Healthy whole blood ex vivo spiking experiments (summary); format: cell-based, human
Method: as §4
Plasma concentrations above 2 μM have been safely achieved in cancer patients following once daily oral dosing, while maintaining steady-state Cmin of ˜1 μM.

[6] = test system: rat collagen induced arthritis; experiment: Rat collagen induced arthritis model; format: in vivo
Method: Collagen antibody titers were determined by ELISA (R&D Systems). Steady-state serum Cmax was determined using liquid chromatography-tandem mass spectrometry.
The average plasma concentrations (Cmax) for each dosing group is shown at the right of the graph. Asterisks denote statistical significant relative to vehicle by student T test (p<0.05).

SYK [7] = experiment: Healthy normal human whole blood assay: B-cell, BCR stimulation, CD69 readout; format: cell-based
[8] = test system: ibrutinib-sensitive primary CLL cells; experiment: BrdU proliferation assay, primary CLL cells of ibrutinib responders; format: cell-based, human; settings: 250 nM, combined stimulation, day 8
[9] = test system: IL-4 induced STAT6 phosphorylation; experiment: Primary CLL cells: IL-4 induced signalling; format: cell-based, human
Method: as §1

JAK2 [10] = biological target: T6, JAK2 (Homo sapiens, UniProt O60674); experiment: Purified kinase assay (Millipore); format: biochemical; settings: 300 nM ATP
T6 construct: purchased Millipore

SYK [11] = experiment: Healthy normal human whole blood assay: B-cell, BCR stimulation, pERK Y204 readout; format: cell-based
15 DLBCL cell lines = experiment: DLBCL cell line panel: caspase 3 cleavage and Edu incorporation by FACS; format: cell-based
Method: DLBCL Cell Line Viability Assays: Cell lines, purchased from ATCC, were screened using the CellTiter Glo (Promega) assay in 384 well plates using a ten-point concentration response curve to generate IC50's. Each IC50 value is an average of at least four replicate experiments. Subsequent analysis using a FACS based caspase 3 cleavage detection kit (BD Biosciences) and Edu incorporation were performed.
In a panel of 15 cell lines representing both ABC and GCB subtypes, 9 underwent apoptosis and an additional 2 underwent cell cycle arrest.
FIG. 1 and FIG. 2 depicts bar graphs that show the percent inhibition of Edu incorporation and percent induction of caspase 3 cleavage by FACS analysis, respectively.

PKC = experiment: Healthy normal human whole blood assay: B-cell, PMA stimulation, pERK Y204 readout; format: cell-based
JAK1/3 = experiment: Healthy normal human whole blood assay: T-cell, IL4 stimulation, PSTAT6 Y641 readout; format: cell-based
IL4 signaling = experiment: Phase 1 study: whole blood PD, IL4 signaling; format: in vivo; settings: Homo sapiens; 40 mg/day; read-out: % Inh. IL4 (Cmin-Cmax) Extrapolated from PK/PD fit of all data
Method: as §4, §3

[12] = test system: WT BTK-transfected TMD8 cells; experiment: Cell growth of transfected TMD8 cells (Muse Count & Viability); format: cell-based; settings: 250 nM, 7 days
Source text: as §5

SMILES: CCS(=O)(=O)N1CCN(c2ccc(Nc3ncc(C(N)=O)c(NC4CC4)n3)cc2)CC1 [cerdulatinib, 4-(cyclopropylamino)-2-(4-(4-(ethylsulfonyl)piperazin-1-yl)phenylamino)pyrimidine-5-carboxamide]
- concentration (achievable in patients) at which BCR and IL-4 mediated signalling was overcome [1]: ~2.2 µM
- IC50 (TYK2): 0.5 nM
- IC50 (FLT3): 90 nM
- IC50 (RSK4): 28 nM
- IC50 (MARK1): 10 nM
- inhibition of serum markers of inflammation ([2]; QD dosing of 40-100 mg): significant inhibition
- reduction of serum β2M (and other inflammation markers) ([2]; all dose levels tested clinically): Clear evidence for reduction
- inhibition of serum inflammation markers (e.g., β2M, CRP, CCL4) ([2]; day 28 of cycle 1, plasma about 0.6 to 1 μM): 50-90%
- serum proteins that are markers of inflammation (β2M, CRP, TNFR, CCL3/4) ([2]; patients): significantly reduced
- cell growth [3]: effectively blocked
- JAK/STAT signaling inhibition (IL2, IL4, IL6 signaling; Cmin/Cmax): 60-80%
- % Inhibition IL2, IL4, IL6 signaling (IL2, IL4, IL6 signaling; Patient 1, 65 mg PO QD): 60-100%
- IC50 (JAK2 [4]): > 4000 nM
- IC50 (JAK1/TYK2): 350 nM
- inhibition of the purified kinases of Table 1 in the panel screen (270 kinase panel): > 80%
- IC50 (JAK1): 12 nM
- inhibition at the cellular level and/or in patients for AMPK, JAK2, TBK-1, RSK2, and RSK4 [5]: no evidence of inhibition
- IC50 ([5]; Homo sapiens, healthy whole blood, ex vivo spiking, read-out: IC50's, BCR/SYK and cytokine (IL2, IL4, IL6) JAK/STAT signaling): 200 to 900 nM
- Caverage corresponding to complete arrest of inflammation and auto-antibody generation [6]: 0.3 to 0.4 µM
- average plasma concentration at which inflammation and joint destruction were arrested [6]: 0.3 µM
- IC50 (SYK [7]): 100 nM
- BrdU incorporation (proliferation) [8]: responded equally well
- IL-4 induced STAT6 phosphorylation [9]: abrogated
- IL-4 increased surface IgM expression ([9]; 24 hours, in the presence of ZVAD): inhibited
- IC50 (JAK2 [10]): 6 nM
- IC50 (SYK [11]): 500 nM
- activity against DLBCL cell lines (15 DLBCL cell lines; 2 μM): broadly active
- induction of apoptosis in cell lines (15 DLBCL cell lines; 2 μM): induced apoptosis in the majority of cell lines
- additional cell lines that underwent cell cycle arrest (15 DLBCL cell lines; panel of 15 cell lines): 2
- number of cell lines that underwent apoptosis (15 DLBCL cell lines; panel of 15 cell lines, ABC and GCB subtypes): 9
- response of DB, TOLEDO, and RCK8 cell lines (15 DLBCL cell lines; three of the 15 cell lines): resistant
- concentration required to induce apoptosis and/or cell cycle arrest (15 DLBCL cell lines; variable, generally observed): ~2 µM
- IC50 (PKC): > 4000 nM
- IC50 (JAK1/3): 580 nM
- inhibition at 40 mg (IL4 signaling): 63 to 78%
- cell growth [12]: similarly inhibited
